Values quoted from earlier work, collected in patent US20010001064A1, “Flow electroporation chamber and methods of use thereof” (priority 1998, published 2001).

How the values were obtained:
hemoglobin [1] = target: T1, hemoglobin (Homo sapiens, UniProt P68871+P69905); conditions: relative to DPG
hemoglobin [2] = target: T1, hemoglobin; conditions: pH 7.4, 37 degrees C.

T1 sequence (P69905 2-142 limits assumed): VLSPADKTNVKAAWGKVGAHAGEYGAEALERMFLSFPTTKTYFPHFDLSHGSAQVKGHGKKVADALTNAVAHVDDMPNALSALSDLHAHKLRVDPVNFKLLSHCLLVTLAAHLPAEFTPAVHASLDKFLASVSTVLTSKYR
T1 sequence (P68871 2-147 limits assumed): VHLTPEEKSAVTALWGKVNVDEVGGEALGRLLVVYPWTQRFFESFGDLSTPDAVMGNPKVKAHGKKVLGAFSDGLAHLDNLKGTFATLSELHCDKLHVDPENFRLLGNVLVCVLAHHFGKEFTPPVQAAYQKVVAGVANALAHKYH

For `O=P(O)(O)O[C@H]1[C@H](OP(=O)(O)O)[C@@H](OP(=O)(O)O)[C@H](OP(=O)(O)O)[C@@H](OP(=O)(O)O)[C@H]1OP(=O)(O)O` [IHP, inositol hexaphosphate], the “affinity to hemoglobin, higher than DPG” value (hemoglobin [1]) is listed as 1000 fold and the P50 of hemoglobin (hemoglobin [2]) is listed as no more than 96.4 mm Hg.
